According to paper PMC6300130 (Journal of medicinal chemistry, 2018):
Where “and” joins values, the source holds several entries; their conditions need not be identical. Equal entries are not always repeated. Where two headings read alike, the source gives them in different places.

Assays:
[1] = system: Mycobacterium tuberculosis (Mtb) DXR; settings: cited from earlier work
[2] = system: P. falciparum strain 3D7; experiment: IPP rescue of inhibitor-treated P. falciparum; assay type: cell-based, Plasmodium falciparum; settings: 125 μM IPP, 72 h
[3] = system: MEP pathway metabolites in P. falciparum 3D7 parasites; experiment: MEP pathway metabolite profiling by LC-MS/MS; assay type: cell-based, Plasmodium falciparum; settings: 5× the IC50 value, 10 h
[4] = system: P. falciparum had1 mutant strain; experiment: Growth inhibition of had1 mutant P. falciparum; assay type: cell-based, Plasmodium falciparum; settings: for sensitivity in had1 + HAD1-GFP strain: mutant supplied with wild-type copy of HAD1
[5] = Tolerability in mice during efficacy study; assay type: in vivo, mouse; settings: 20 and 50 mg/kg ip daily for 5 days
[6] = system: P. falciparum strain 3D7; settings: cited from earlier work
[7] = system: P. falciparum had1 mutant strain; settings: cited from earlier work
[8] = system: HepG2 cells; experiment: HepG2 cytotoxicity; assay type: cell-based, human; settings: HepG2 IC50/P. falciparum IC50
[9] = system: Mtb; settings: cited from earlier work
[10] = cited from earlier work

In the case of `CC(=O)N(O)C/C=C/P(=O)([O-])O.[Na+]` [compound 2], the “increase in potency against Mtb DXR compared with FR900098” value [1] is given as 2 fold and the IC50 ([1]; read-out: Mtb DXR IC50) is given as 1070 nM.

For `CC(C)(C)C(=O)OCOP(=O)(/C=C/CN(O)C=O)OCOC(=O)C(C)(C)C` [18a, [({[(2,2-Dimethylpropanoyl)oxy]methoxy}[(1E)-3-(N-hydroxyformamido)prop-1-en-1-yl]phosphoryl)oxy]methyl 2,2-Dimethylpropanoate], the “rescue of growth by exogenous IPP” value [2] was “effectively rescues growth”, the “DOXP level, treated vs untreated parasites” value [3] was “did not show significant difference” and the “sensitivity in had1 + HAD1-GFP strain” value [4] was “restored”. For the same compound, the tolerability in mice [5] was “no adverse effects were observed”.

For `O=CN(O)CCCP(=O)([O-])O.[Na+]` [1a, Fosmidomycin], the “rescue of growth by exogenous IPP” value [6] is listed as “restoration effect” and the “resistance of had1 parasites” value [7] is listed as “resistant”.

With `O=CN(O)C/C=C/P(=O)([O-])O.[Na+]` [12a, Sodium Hydrogen [(1E)-3-(N-Hydroxyformamido)prop-1-en-1-yl]phosphonate] the “SI^Pf selectivity index” value [8] was > 2632, the “rescue of growth by exogenous IPP” value [2] was “effectively rescues growth” and the “sensitivity in had1 + HAD1-GFP strain” value [4] was “restored”.

In the case of `CC(=O)N(C/C=C/P(=O)([O-])O)OCc1ccc(C(C)C)cc1.[Na+]` [16e], the “rescue of growth by exogenous IPP” value [2] is reported as “restored by IPP supplementation” and the “resistance of had1 parasites compared with wild-type” value ([4]; words) is reported as “more resistant”.

For `CC(=O)N(O)C/C=C/P(=O)(OCOC(=O)C(C)(C)C)OCOC(=O)C(C)(C)C` [compound 3], the “Mtb MIC99” value [9] is listed as 9.4 μg/mL and 22 μM and the “in vivo antimalarial activity” value [10] is listed as “potent in vivo antimalarial activity”.

In the case of `CC(=O)N(CCCP(=O)(OCOC(=O)C(C)(C)C)OCOC(=O)C(C)(C)C)OCc1ccc2ccccc2c1` [compound 5], the “Mtb MIC99” value [9] is listed as 18.75 μg/mL and 33.2 μM.
